Results from the NIST ThermoML archive (doi:10.1007/s10765-016-2150-1).
± gives the expanded uncertainty stated by the source.

Conditions: Liquid, Oscillating viscometer

O=[N+]([O-])[O-].[Li+] [lithium nitrate]
Conditions	viscosity [mPa·s]
544.9 K	5.15 ± 0.32
554.5 K	4.457 ± 0.27
571.7 K	4.195 ± 0.26
592.1 K	3.854 ± 0.24
595.9 K	3.618 ± 0.22
597 K	3.72 ± 0.23
601.3 K	3.549 ± 0.22
603.3 K	3.373 ± 0.21
619.2 K	3.075 ± 0.19
623.2 K	3.024 ± 0.18
627.2 K	3.04 ± 0.19
662.7 K	2.448 ± 0.15
688.8 K	2.169 ± 0.14
689.2 K	2.094 ± 0.13
